A short description of assay [1]: Antagonist activity at hedgehog receptor. The assay is classed as functional.
The nature of assay [2]: Agonist activity at hedgehog receptor. The assay is classed as functional.
Assay [3] in a line: Inhibition of hedgehog receptor mediated Gli transcription.
Assay [4] can be described thus: Inhibition of hedgehog receptor mediated Ptch1 transcription.

For the compound `CC1=C2C[C@H]3[C@@H](CC[C@@H]4Cc5n[nH]cc5C[C@@]43C)[C@@H]2CC[C@@]2(C1)O[C@@H]1C[C@H](C)CN[C@@H]1[C@H]2C`, in assay [1], inhibition was half-maximal at 10 nM (IC50). Regarding `CC(C)[C@@H](O)CC[C@@H](C)[C@H]1CC[C@H]2[C@@H]3CC=C4C[C@@H](O)CC[C@]4(C)[C@H]3CC[C@]12C`, the EC50 in assay [2] is 3000 nM.

Turning to `CC(C)CC[C@H](O)[C@@H](C)[C@H]1CC[C@H]2[C@@H]3CC=C4C[C@@H](O)CC[C@]4(C)[C@H]3CC[C@]12C`, in assay [2], the response was half-maximal at 200 nM (EC50). On the same count and under the same terms, the same measure for `CN[C@H]1CC[C@H](N(Cc2cccc(-c3ccncc3)c2)C(=O)c2sc3ccccc3c2Cl)CC1`: 3000 nM.

On to `C[C@@]12C[C@H]3OC(=O)[C@@H]1CO[C@]14O[C@]5([C@H]2C1=O)[C@@](O)(CC[C@H]1[C@H]4C[C@H]2O[C@]24CC=CC(=O)[C@]14C)C(=O)O[C@@]35C` [PHYSALIN F], for which, in assay [1], the IC50 amounted to 660 nM. The compound `CS(=O)(=O)c1ccc(C(=O)Nc2ccc(Cl)c(-c3ccccn3)c2)c(Cl)c1` [VISMODEGIB] displayed an IC50 in assay [1] of 13 nM. In turn, `CN(C)c1ccccc1CN1CCCN(Cc2ccccc2N(C)C)C1c1ccncc1` gave an IC50 in assay [1] of 5000 nM. As to `CC1=C2C[C@H]3[C@@H](CCC4=CC(=O)CC[C@@]43C)[C@@H]2CC[C@@]2(C1)O[C@@H]1C[C@H](C)CNC1[C@H]2C` (single isomer, unassigned), the IC50 in assay [1] came out at 200 nM. As to `CC1=C2C(=O)[C@H]3[C@@H](CC=C4C[C@@H](O)CC[C@@]43C)[C@@H]2CC[C@]12O[C@@H]1C[C@H](C)CN[C@H]1[C@H]2C` [JERVINE], in assay [3] (read-out: EC50), the EC50 stood at 500 nM. `CCCN[C@H]1CC[C@H](N(Cc2cccc(-c3ccncc3)c2)C(=O)c2sc3ccccc3c2Cl)CC1` yielded an IC50 in assay [1] of 20 nM. Same read-out and setting: in the case of `CCOc1cc(C(=O)Nc2ccc(Cl)c(-c3nc4ccccc4[nH]3)c2)cc(OCC)c1OCC` it was 30 nM.

Regarding `CC1=C2C[C@H]3[C@@H](CC[C@@H]4CNC(=O)CC[C@@]43C)[C@@H]2CC[C@@]2(C1)O[C@@H]1C[C@H](C)CN[C@@H]1[C@H]2C`, in assay [1], the half-inhibitory concentration (IC50) amounted to 30 nM. In turn, `c1ccc2c(Oc3nc(Nc4ccc(N5CCOCC5)cc4)c4ncn(C5CCCCC5)c4n3)cccc2c1` [PURMORPHAMINE] showed an EC50 in assay [2] of 1000 nM.

Consider `Cc1c([C@H](C)[C@@H]2NC[C@@H](C)C[C@H]2O)ccc2c1C[C@H]1[C@H]2CC=C2C[C@@H](O)CC[C@@]21C` [VERATRAMINE], for which the EC50 entry in assay [3] is “Not Active”. In turn, `COCCOC(=O)C1=C(C)NC2=C(C(=O)CC(c3ccccc3OC)C2)C1c1cccc(O)c1` (stereo not given) gave an IC50 in assay [1] of 1500 nM. Turning to `CC(C)CCC[C@](C)(O)[C@H]1CC[C@H]2[C@@H]3CC=C4C[C@@H](O)CC[C@]4(C)[C@H]3CC[C@@]21C`, the EC50 in assay [2] came to 100 nM. Regarding `CC1=C2C[C@H]3[C@@H](CC[C@@H]4C[C@H](NS(C)(=O)=O)CC[C@@]43C)[C@@H]2CC[C@@]2(C1)O[C@@H]1C[C@H](C)CN[C@@H]1[C@H]2C`, in assay [1], the IC50 was found to be 7 nM.

Compound `O=C(C[C@@H]1C/C=C/CCC(=O)O[C@H](c2ccccc2)CNC1=O)NCc1ccc(Cl)cc1` [ROBOTNIKININ] displayed an IC50 in assay [1] of 3100 nM. Regarding `CC1=C2C[C@H]3[C@@H](CC=C4C[C@@H](O)CC[C@@]43C)[C@@H]2CC[C@]12O[C@@H]1C[C@H](C)CN[C@H]1[C@H]2C` [CYCLOPAMINE], the EC50 in assay [3] (read-out: EC50) and in assay [4] was 300 nM each time. As for `CC1=C2C[C@H]3[C@@H](CC=C4C[C@@H](O[C@@H]5O[C@H](CO)[C@@H](O)[C@H](O)[C@H]5O)CC[C@@]43C)[C@@H]2CC[C@]12O[C@@H]1C[C@H](C)CN[C@H]1[C@H]2C` [CYCLOPOSINE], in assay [3] (read-out: EC50), the EC50 is greater than 700 nM. In assay [1], `CCC(C)n1ncn(-c2ccc(N3CCN(c4ccc(OCC5COC(Cn6cncn6)(c6ccc(Cl)cc6Cl)O5)cc4)CC3)cc2)c1=O` (stereo not given) [ITRACONAZOLE] registered an IC50 of 800 nM. On the same count and under the same terms, the same measure for `CC1=C2C[C@H]3[C@@H](CC=C4CC(=O)CC[C@@]43C)[C@@H]2CC[C@]12O[C@@H]1C[C@H](C)CN(CCNC(=O)CCCCCNC(=O)CCc3ccccc3)[C@H]1[C@H]2C`: 20 nM. Still for that read-out and setting: the same measure for `c1cc(-c2sc(-c3ccncc3)c(-c3ccncc3)c2-c2ccncc2)ccn1`: 5000 nM.

For `C[C@H](CCCC(C)(C)O)[C@H]1CC[C@H]2[C@@H]3CC=C4C[C@@H](O)CC[C@]4(C)[C@H]3CC[C@]12C`, a half-maximal effect in assay [2] (EC50) was put at 1000 nM.

The term IC50 denotes the concentration needed to halve the response being measured. By EC50 is commonly meant the concentration at which the effect is half-maximal.
